Source: PubChem BioAssay (NCI)
“And” between values parts separate entries of the source, which are not always exact repeats. Equal values may be shown once.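 Following 48 hours of exposure in 96-well plates, responses at five concentrations were used to interpolate endpoints linearly. GI50 marks 50% less growth. The concentration for full growth arrest is given as TGI.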

How the values were obtained:
Experiment in all cases: NCI tumour cell line growth inhibition, 48 h
[1] = system: SF-295 CNS
[2] = system: SF-268 CNS
[3] = system: M14 melanoma
[4] = system: SK-MEL-5 melanoma
[5] = system: SW-620 colon
[6] = system: PC-3 prostate
[7] = system: UACC-257 melanoma
[8] = system: A498 renal
[9] = system: K-562 leukemia
[10] = system: MOLT-4 leukemia

SMILES | GI50 [1] | TGI [1] | GI50 [2] | TGI [2] | GI50 [3] | TGI [3] | GI50 [4] | TGI [4] | GI50 [5] | TGI [5] | GI50 [6] | TGI [6] | GI50 [7] | TGI [7] | GI50 [8] | TGI [8] | GI50 [9] | TGI [9] | GI50 [10] | TGI [10]
O=C1C=C(Nc2cccc(Br)c2)c2ccccc2C1=O | 3.21 µM | 15.1 µM | 9.01 µM | > 100 µM | 0.611 µM | 13.1 µM | 1.2 µM | 10.5 µM | 0.482 µM | > 100 µM | 8.68 µM | > 100 µM | 5.99 µM | > 100 µM | 4.06 µM | 27.2 µM | 1.52 µM | 18.3 µM | 18.4 µM | 42.7 µM
COc1cc(C2C3=C(COC3=O)N(CCO)c3cc4c(cc32)CCC4)cc(OC)c1O (stereo unspecified) | 0.0973 µM | 0.354 µM | 0.182 µM | > 32.5 µM | 0.179 µM | – | 0.102 µM | > 11 µM | 0.121 µM | > 32.5 µM | 0.203 µM | > 32.5 µM | – | > 32.5 µM | 0.131 µM | 5.64 µM | 0.161 µM | > 32.5 µM | 0.52 µM | > 32.5 µM
COc1ccc(S(=O)(=O)N/N=C/C(=O)O)cc1 | – | 1070 µM | – | 975 µM | – | > 1250 µM | – | 894 µM | – | 1230 µM | – | > 1250 µM | – | > 1250 µM | – | 1210 µM | – | > 1170 µM | – | 694 µM
Cc1ccc(NCSc2ccc(Cl)cc2)cc1 | 24.9 µM | > 100 µM | 13.1 µM | > 100 µM | 77.1 µM | > 100 µM | > 100 µM | > 100 µM | > 100 µM | > 100 µM | 10.2 µM | > 100 µM | > 100 µM | > 100 µM | 18.8 µM | > 100 µM | > 100 µM | > 100 µM | 6.15 µM | > 100 µM
COc1ccccc1C(=O)c1cnc(NC2CCN(S(C)(=O)=O)CC2)nc1N | 5.5 µM | > 25 µM | 7.35 µM | > 25 µM | 10.2 µM | > 25 µM | 4.84 µM | > 25 µM | 4.33 µM | > 25 µM | 3.48 µM | > 25 µM | 11.6 µM | > 25 µM | 6 µM | 22 µM | > 25 µM | > 25 µM | 6.43 µM | > 25 µM
CC[C@]12C=CCN3CC[C@]4(C(=C(C(=O)OC)C1)Nc1cc(O)ccc14)[C@@H]32 | 16.7 µM | 33.1 µM | 20.7 µM | 53.2 µM | 13.9 µM | 34.3 µM | 14.8 µM | 28.3 µM | 16.3 µM | 36.6 µM | 21.2 µM | 50.5 µM | 25.8 µM | 85.9 µM | 18.1 µM | 36.5 µM | 7.59 µM | > 100 µM | 21.6 µM | 74.2 µM
Cc1ccc([P+](Cc2ccc([N+](=O)[O-])cc2)(c2ccc(C)cc2)c2ccc(C)cc2)cc1 | 5.24 µM | 18.6 µM | 3.45 µM | 14 µM | 2.96 µM | 12.3 µM | 1.22 µM | 2.52 µM | 3.07 µM | 15.4 µM | 2.64 µM | 14.3 µM | 1.69 µM | 5.3 µM | 2.54 µM | 12.7 µM | 1.28 µM | 12.3 µM | 5.97 µM | 29.3 µM
CN1CCCC1c1cccnc1.O=C(O)c1ccccc1O.O=C([O-])c1ccccc1[OH2+].O=C([O-])c1ccccc1[OH2+].O=C([O-])c1ccccc1[OH2+].[Mn+2] (stereo unspecified) | > 100 µM | > 100 µM | 22.3 µM | 73.4 µM | > 100 µM | > 100 µM | > 100 µM | > 100 µM | 42.4 µM | > 100 µM | 95.5 µM | > 100 µM | 37.6 µM | > 100 µM | > 100 µM | > 100 µM | > 100 µM | > 100 µM | 19.9 µM | > 100 µM
COC(=O)[C@H](Cc1ccccc1)NC(=O)c1csc([C@@H](C[C@H](C(C)C)N(C)C(=O)[C@@H](NC(=O)[C@H]2CCCCN2C)C2CC2)OC(C)=O)n1 | 0.0334 µM | > 25 µM | 0.111 µM | > 25 µM | 0.0328 µM | – | 0.0521 µM | 3.37 µM | 0.0167 µM | > 25 µM | 0.0509 µM | > 25 µM | > 10.7 µM | > 25 µM | 0.0693 µM | 1.67 µM | 0.0118 µM | > 25 µM | 0.0362 µM | > 25 µM
CO[C@H]1C=C[C@]23c4cc5c(cc4CN(CC2O)[C@@H]3C1)OCO5 (stereo partly specified) | – | 4.14 µM | – | 32.7 µM | – | > 100 µM | – | 17.8 µM | – | > 100 µM | – | 18.6 µM | – | 42.8 µM | – | 9.66 µM | – | > 100 µM | – | 8.97 µM
O=C1c2c(O)cccc2C(C(=O)CCCCC(=O)C2c3cccc(O)c3C(=O)c3c(O)cccc32)c2cccc(O)c21 | 0.672 µM | 4.57 µM and 1.49 µM | 2.25 µM | 2.39 µM and 6.86 µM | 1.75 µM | 2.54 µM and 5.03 µM | 1.09 µM | 0.921 µM and 2.04 µM | 1.73 µM | 10.1 µM and 7.17 µM | – | 0.458 µM | 1.38 µM | 1.34 µM and 2.96 µM | 2.14 µM | 5.27 µM and 7.36 µM | 1.21 µM | 7.66 µM and 2.49 µM | 1.8 µM | 5.42 µM and 9.97 µM
O=C1OC(c2ccc(O)cc2)(c2ccc(O)cc2)c2cccc3cccc1c23 | 15 µM | 31.8 µM | 14.2 µM | 32.2 µM | 16.4 µM | 33 µM | 16.1 µM | 31.3 µM | 15.5 µM | 33.3 µM | 11.5 µM | 29 µM | 13.8 µM | 27.8 µM | 0.488 µM | 15.3 µM | 15.7 µM | 61.3 µM | 11.7 µM | 33.8 µM
